Legend:
4T1 breast cancer tumors = assay: Efficacy study of SNPs in murine 4T1 breast cancer model; format: in vivo, BALB/c mice; conditions: 5 mg/kg PI103 equivalent, 3 injections every other day
Method: 4T1 breast cancer cells ([…]) were implanted subcutaneously in the flanks of 4-week-old BALB/c mice. The drug therapy was started on day 9. The drug therapy consisted of administration of PBS (for Control group), free drug (5 mg/kg) and SNPs (5 mg/kg). For PI103-SNPs, the drug therapy also consisted iRGD-PI103-SNPs group (5 mg/kg). The tumor volumes and body weights were monitored on every alternate day for 11 days.
The drug therapy was started on day 9. For PI828-SNPs, the drug therapy consisted of administration of PBS (for Control group), free PI-828 (5 mg/kg) and PI828-SNPs (5 mg/kg). For PI103-SNPs, the drug therapy consisted of administration of PBS (for control group), free PI-103 (5 mg/kg) and PI103-SNPs (5 mg/kg) and 1RGD-PI103-SNPs (5 mg/kg) (administered by tail-vain injection). The tumor volumes and body weights were monitored on every alternate day for 11 days. […] The animals were sacrificed when the average tumor volume of the control exceeded 2000 mm3 in the control group.

[1] = tested on: phospho AKT, phospho mTOR, phospho 4EBP in 4T1 tumors; assay: Western blot assay of in vivo 4T1 tumor samples; design: species or system BALB/c mice; conditions: single injection 5 mg/kg, 72 hours
Method: For animal tissue, tumor stored in −80° C. were pulverized in a mortar and pestle using liquid nitrogen, then treated with RIPA buffer to extract the protein. Amount of protein was measured by BCA assay and equal amount of protein lysates were electrophoresed on a polyacrylamide gel, then transferred to polyvinylidene difluoride membrane, (BIO-RAD) and blocked in with 5% milk solution. Then membranes were incubated with appropriate concentration of primary antibody overnight at 4° C., followed by horseradish peroxidase-conjugated secondary antibody for 1 hour. Detection was done using G-box from SYNGENE and densitometric quantification was done by IMAGE-J software.
For animal tissue, tumor stored in −80° C. were pulverized in a mortar and pestle using liquid nitrogen, then treated with RIPA buffer to extract the protein. Amount of protein was measured by BCA assay and equal amount of protein lysates were electrophoresed on a polyacrylamide gel, then transferred to polyvinylidene difluoride membrane, (Bic-Rad) and blocked in with 5% milk scullion. Then membranes were incubated with appropriate concentration of primary antibody (all antibodies from Cell Signalling Technology) overnight at 4° C., followed by horseradish peroxidase-conjugated secondary antibody for 1 hour. Detection was done using G-box from Syngene and densitometric quantification was done by image J™ software.

In the case of `Oc1cccc(-c2nc(N3CCOCC3)c3oc4ncccc4c3n2)c1` [PI103], the tumor growth (4T1 breast cancer tumors) is reported as “tumor growth inhibition relative to PBS-treated controls, but tumor rebound was observed after the treatment was stopped” and the “intratumoral Akt phosphorylation” value [1] is reported as “intratumoral Akt phosphorylation was inhibited”.
